Measurements: patent US11161907B2, “Car-expressing cells against multiple tumor antigens and uses thereof” (Novartis AG, priority 2015, dated 2021)
Entries after “also recorded” stand apart in the source; their conditions may differ. Like-named read-outs stand apart in the source and are kept apart here. Values belong to the molecule of their own block, whether it stands above or below them.

Assays:
[1] = test system: huCART19 cells co-cultured with Nalm-6; test: 4 day co-culture proliferation assay of CARTs with RAD001; format: cell-based, human
Description: To evaluate the functionality of CARTs, the T cells are thawed and counted, and viability is assessed by Cellometer. The number of CAR-positive cells in each culture is normalized using non-transduced T cells (UTD). The impact of RAD001 on CARTs was tested in titrations with RAD001, starting at 50 nM. The target cell line used in all co-culture experiments is Nalm-6, a human pre-B cell acute lymphoblastic leukemia (ALL) cell line expressing CD19 and transduced to express luciferase.
For measuring the proliferation of CARTs, T cells are cultured with target cells at a ratio of 1:1. The assay is run for 4 days, when cells are stained for CD3, CD4, CD8 and CAR expression. The number of T cells is assessed by flow cytometry using counting beads as reference.

NALM6-luc tumors = test: NALM6-luc tumor growth with daily oral RAD001; format: in vivo, NSG mice; conditions: daily oral dosing of RAD001 alone, 0.3-10 mg/kg
Description: NALM6-luc cells were grown and expanded in vitro in RPMI supplemented with 10% heat inactivated fetal bovine serum. The cells were then transferred to a 15 ml conical tube and washed twice with cold sterile PBS. NALM6-luc cells were then counted and resuspended at a concentration of 10×10^6 cells per milliliter of PBS. The cells were placed on ice and immediately (within one hour) implanted in the mice. NALM6-luc cells were injected intravenously via the tail vein in a 100 μl volume, for a total of 1×10^6 cells per mouse.
(§1) A concentrated micro-emulsion of 50 mg equal to 1 mg RAD001 was formulated and then resuspended in D5W (dextrose 5% in water) at the time of dosing. Mice were orally dosed daily (via oral gavage) with 200 μl of the desired doses of RAD001. PK analysis: Mice were dosed daily with RAD001 starting 7 days post tumor implantation. Dosing groups were as follows: 0.3 mg/kg, 1 mg/kg, 3 mg/kg, and 10 mg/kg. Mice were bled on days 0 and 14 following the first and last dose of RAD001, at the following time points for PK analysis: 15 minutes, 30 minutes, 1 hour, 2 hours, 4 hours, 8 hours, 12 hours, and 24 hours.

[2] = RAD001 pharmacokinetic analysis in blood of tumor bearing mice; format: in vivo, NSG mice; conditions: for concentration at 24 h: NSG, mouse, whole blood
Description: as §1

[3] = test system: humanized CD19 CAR T cells; test: In vivo proliferation of huCAR19 CAR T cells with and without RAD001 (FACS); parameters: species or system NSG mice
Description: Mice were administered 5×10^6 CAR T cells 7 days after tumor implantation. Cells were partially thawed in a 37 degree Celsius water bath and then completely thawed by the addition of 1 ml of cold sterile PBS to the tube containing the cells. The thawed cells were transferred to a 15 ml falcon tube and adjusted to a final volume of 10 mls with PBS. The cells were washed twice at 1000 rpm for 10 minutes each time and then counted on a hemocytometer. T cells were then resuspended at a concentration of 50×10^6 CAR T cells per ml of cold PBS and kept on ice until the mice were dosed. The mice were injected intravenously via the tail vein with 100 μl of the CAR T cells for a dose of 5×10^6 CAR T cells per mouse. Eight mice per group were treated either with 100 μl of PBS alone (PBS), or humanized CD19 CAR T cells.
as §1, with “Mice were bled on days 0 and 14 following the first and last dose of RAD001, at the following time points for PK analysis: 15 minutes, 30 minutes, 1 hour, 2 hours, 4 hours, 8 hours, 12 hours, and 24 hours.” left out
Based on these doses, huCAR19 CAR T cells were dosed with and without RAD001 to determine the proliferative ability of these cells. […] Mice were monitored via FACS for T cell expansion.

FRA = FRA (Homo sapiens, UniProt P15328); conditions: cited from earlier work
[4] = test system: subcutaneous SKOV3 tumors; test: Established subcutaneous SKOV3 xenograft model of ovarian cancer; format: in vivo, NSG mice; conditions: 3 weeks following adoptive transfer, versus UNT and CD19-27z groups
From the text: All animals were obtained from the Stem Cell and Xenograft Core of the Abramson Cancer Center, University of Pennsylvania. Six to 12-week-old NOD/SCID/γ-chain−/− (NSG) mice were bred, treated and maintained under pathogen-free conditions in-house under University of Pennsylvania IACUC approved protocols. For an established ovarian cancer model, 6 to 12-week-old female NSG mice were inoculated s.c. with 3×10^6 SKOV3 fLuc+ cells on the flank on day 0. After tumors become palpable at about 1 month, human primary T cell (CD4+ and CD8+ T cells used were mixed at 1:1 ratio) were activated, and transduced as described above. After 2 weeks T cell expansion, when the tumor burden was ˜200-300 mm^3, mice were treated with T cells. The route, dose, and timing of T-cell injections is indicated in the individual figure legends. Tumor dimensions were measured with calipers, and tumor volumes calculated using the formula V=½(length×width^2), where length is greatest longitudinal diameter and width is greatest transverse diameter. […] Photon emission from fLuc+ cells was quantified using the “Living Image” software (Xenogen) for all in vivo experiments. […]
Tumor growth was also monitored by Bioluminescent imaging (BLI). BLI was done using Xenogen IVIS imaging system and the photons emitted from fLuc-expressing cells within the animal body were quantified using Living Image software (Xenogen). […]

FRA, sequence (P15328 25-234): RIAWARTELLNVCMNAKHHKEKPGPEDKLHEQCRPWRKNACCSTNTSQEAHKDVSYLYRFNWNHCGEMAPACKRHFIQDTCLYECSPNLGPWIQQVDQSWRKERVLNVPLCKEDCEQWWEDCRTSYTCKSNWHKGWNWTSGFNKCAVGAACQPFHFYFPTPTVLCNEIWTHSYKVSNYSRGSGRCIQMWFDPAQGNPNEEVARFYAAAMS

concentration at 24 h ([2]; oral, 0.3 mg/kg, 24 hours after the final dose, read-out: concentration of RAD001): > 10 nM
concentration at 24 h ([2]; day 0 PK, 24 hours after dosing, 0.3 mg/kg oral, read-out: RAD001 concentration in the blood): > 10 nM
RAD001 concentration in the blood ([2]; day 14 PK, 24 hours after dosing, 0.3 mg/kg oral): above 10 nm
stability in the blood ([2]; tumor bearing mice): fairly stable
Molecule: CO[C@H]1C[C@@H]2CC[C@@H](C)[C@@](O)(O2)C(=O)C(=O)N2CCCC[C@H]2C(=O)O[C@H]([C@H](C)C[C@@H]2CC[C@@H](OCCO)[C@H](OC)C2)CC(=O)[C@H](C)/C=C(\C)[C@@H](O)[C@@H](OC)C(=O)[C@H](C)C[C@H](C)/C=C/C=C/C=C/1C [RAD001, (1R,9S,12S,15R,16E,18R,19R,21R,23S,24E,26E,28E,30S,32S,35R)-1,18-dihydroxy-12-{(1R)-2-[(1S,3R,4R)-4-(2-hydroxyethoxy)-3-methoxycyclohexyl]-1-methylethyl}-19,30-dimethoxy-15,17,21,23,29,35-hexamethyl-11,36-dioxa-4-aza-tricyclo[30.3.1.04,9]hexatriaconta-16,24,26,28-tetraene-2,3,10,14,20-pentaone]
proliferation of huCART19 cells ([1]; 0.0032 and 0.016 nM RAD001): higher than observed without the addition of RAD001
RAD001 concentration at which huCART19 cells expanded ([1]; 4 day co-culture with Nalm-6, 1:1): less than 0.016 nM
impact on the growth of NALM6-luc tumors (NALM6-luc tumors): did not have an impact
CAR T cell proliferation in vivo ([3]; 0.003 mg/kg RAD001 daily): enhancement in CAR T cell proliferation
proliferation of the CAR T cells in vivo ([3]; lowest doses of RAD001, daily oral): enhanced proliferation

B1: C4: fully human anti-FRA scFv/Fab fragment, scFv SEQ ID NO: 98 (protein)
scFv: QLVESGGGLVQPGRSLRLSCTTSGFTFGDYAMIWARQAPGKGLEWVSSISSSSSYIYYADSVKGRFTISRDNAKNSLYLQMNSLRAEDTAVYYCARERYDFWSGMDVWGKGTTVTVSSGGGGSGGGGSGGSAQSALTQPASVSGSPGQSITISCTGTSSDVGSYNLVSWYQQHPGKAPKLMIYEGSKRPSGVSNRFSGSKSGNAASLTISGLQAEDEADYYCQSYDSSLSVVFGGGTKLTVLG
binding affinity relative to murine MOv19 (FRA): approximately five-fold less; also recorded: approximately five-fold weaker
persistence of transferred T-cells in the peripheral blood [4]: higher numbers of CD4+ and CD8+ T cells
